Source: US20190151495A1, “Composite biomaterials with controlled release of active ingredient, preparation process and uses” (CENTRE NATIONAL DE LA RECHERCHE SCIENTIFIQUE, priority 2016, published 2019)

Columns and labels:
[1] = molecular target: T1, mineralocorticoid receptor (Rattus norvegicus, UniProt P22199); assay: Biological activity of spironolactone: luciferase reporter in H9C2 cells incubated with aldosterone; assay type: cell-based; conditions: FIG. 12
T1 construct: H9C2 cells are myoblasts genetically modified by the incorporation of the reporter gene encoding luciferase; endogenous in cells; host or cells: H9C2 myoblasts carrying a luciferase reporter
T1 sequence (P22199 1-981): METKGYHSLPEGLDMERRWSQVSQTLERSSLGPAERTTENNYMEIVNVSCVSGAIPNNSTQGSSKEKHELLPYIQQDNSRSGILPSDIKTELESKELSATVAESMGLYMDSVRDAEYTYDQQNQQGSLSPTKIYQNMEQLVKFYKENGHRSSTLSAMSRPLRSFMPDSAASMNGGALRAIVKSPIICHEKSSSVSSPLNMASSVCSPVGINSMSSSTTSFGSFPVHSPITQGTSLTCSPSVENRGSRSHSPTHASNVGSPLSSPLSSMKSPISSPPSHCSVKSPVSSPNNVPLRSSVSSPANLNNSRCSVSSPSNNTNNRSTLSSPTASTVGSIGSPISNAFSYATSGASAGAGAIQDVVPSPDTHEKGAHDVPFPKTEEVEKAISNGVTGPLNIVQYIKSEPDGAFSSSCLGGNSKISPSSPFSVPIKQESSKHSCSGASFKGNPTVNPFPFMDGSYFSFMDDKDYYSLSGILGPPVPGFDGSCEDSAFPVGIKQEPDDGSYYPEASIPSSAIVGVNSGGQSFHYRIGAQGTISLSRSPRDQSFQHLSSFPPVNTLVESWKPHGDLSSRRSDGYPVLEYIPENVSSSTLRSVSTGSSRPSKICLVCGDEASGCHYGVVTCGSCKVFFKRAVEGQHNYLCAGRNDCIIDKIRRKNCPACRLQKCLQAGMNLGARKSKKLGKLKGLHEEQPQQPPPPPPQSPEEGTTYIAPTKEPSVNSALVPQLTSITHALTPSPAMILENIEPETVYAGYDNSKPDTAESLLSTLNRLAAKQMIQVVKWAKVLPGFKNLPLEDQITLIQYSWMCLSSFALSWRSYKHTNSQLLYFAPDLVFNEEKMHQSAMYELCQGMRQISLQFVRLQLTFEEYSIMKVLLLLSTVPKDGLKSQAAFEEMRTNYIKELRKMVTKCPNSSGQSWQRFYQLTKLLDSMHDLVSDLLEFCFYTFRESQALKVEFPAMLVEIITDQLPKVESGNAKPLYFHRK
Method: The biological activity of the spironolactone was measured in the following manner: H9C2 cells are myoblasts genetically modified by the incorporation of the reporter gene encoding luciferase downstream of the promoter having sequences binding the complex of aldosterone plus its receptor. When aldosterone was added, luciferase was expressed and detected by bioluminescence. […] This inhibition reports the biological activity of the spironolactone on H9C2s incubated with aldosterone. The spironolactone activity was measured directly on the spironolactone releasing liquid originating from the different types of hydrogels tested.
FIG. 12 represents the biological activity of the spironolactone released from a hydrogel after 15 days of incubation in PBS (with changing of the buffer every day); when the following are used:
(2) a mixture of a material MB-S with aldosterone at approximately 10^−8 M,
(3) a mixture of a material MC-S with aldosterone at approximately 10^−8 M,
(4) a mixture of a material MA-S with aldosterone at approximately 10^−8 M,
(5) a negative control (well containing the culture medium without aldosterone),
(6) aldosterone at approximately 10^−8 M, and
(7) a mixture of aldosterone at approximately 10^−8 M and spironolactone at approximately 10^−6 M.

[2] = tested on: primary human dermal fibroblasts; assay: Toxicity of the materials: cell viability by metabolic test (AlamarBlue Assay); assay type: cell-based; conditions: FIG. 11
Method: The toxicity of the materials was measured as follows: primary human dermal fibroblasts were seeded onto a culture plate. The composite hydrogels were then incubated with the fibroblasts for 1 or 6 days. The cell viability was measured by a metabolic test (AlamarBlue Assay®) and compared with that of control fibroblasts (without addition of composite hydrogel).
FIG. 11 represents the toxicity of the composite biomaterial of the invention M1-S on cells (fibroblasts) and by way of comparison: • the toxicity of a dry collagen material impregnated with spironolactone MB-S obtained from the dehydrated pure collagen material MA-HD as obtained in example 1.3 which was impregnated with a solution comprising approximately 10^−2 M of spironolactone in THF, rinsed and lyophilized in accordance with example 1.4 above, • the toxicity of a dry collagen material impregnated with PLGA MC-S obtained from the dehydrated pure collagen material MA-HD as obtained in example 1.3 which was impregnated with a solution comprising approximately 160 mg/ml of PLGA 30-60 kDa in THF, rinsed and lyophilized in accordance with example 1.4, and • the toxicity of a dry pure collagen material MA-S as obtained in example 1.3.
Moreover, C represents a negative control (well containing just the cells without hydrogel). […]

SMILES	production of luciferase (receptor activation) ([1]; aldosterone approximately 10^-8 M alone, conditions (6) versus negative control (5))	toxicity on cells (in words) ([2]; 1 day and 6 days, compared with control)	cell viability (cells survived) ([2]; first day, relative to negative control C)	production of luciferase (inhibition of aldosterone effect) ([1]; free spironolactone approximately 10^-6 M with aldosterone approximately 10^-8 M, conditions (7))
C[C@]12CCC(=O)C=C1CC[C@@H]1[C@@H]2[C@@H](O)C[C@]2(C=O)[C@@H](C(=O)CO)CC[C@@H]12 [aldosterone]	caused strong transcription	–	–	–
CC(=O)S[C@@H]1CC2=CC(=O)CC[C@]2(C)[C@H]2CC[C@@]3(C)[C@@H](CC[C@@]34CCC(=O)O4)[C@H]12 [spironolactone]	–	slight toxic effect	74%	the effect of the aldosterone is inhibited
